Like-named read-outs stand apart in the source and are kept apart here.
Key:
CLK2 = biological target: T1, CLK2 (Homo sapiens, UniProt P49760); test: CLK2 kinase activity assay (Z-lyte, Ser/Thr 6 peptide); format: biochemical; conditions: recombinant CLK2 kinase, ATP 60 μM; read-out: EC50
T1 construct: purchased Thermo Fisher (Life Technologies), Z'-LYTE Kinase Assay Kits
Protocol: All reactions were performed in duplicate.

BT-549 = test: CellTiter-Glo Viability Assay, breast cancer; format: cell-based; conditions: Homo sapiens, 96 h; BT-549, breast cancer, four days; read-out: EC50
CAMA1 = test: CellTiter-Glo Viability Assay, breast cancer; format: cell-based; conditions: Homo sapiens, CAMA-1, 96 h; CAMA1, breast cancer, four days; read-out: EC50
DU4475 = test: CellTiter-Glo Viability Assay, breast cancer; format: cell-based; conditions: Homo sapiens, DU-4475, 96 h; DU4475, breast cancer, four days; read-out: EC50
HCC1599 = test: CellTiter-Glo Viability Assay, breast cancer; format: cell-based; conditions: Homo sapiens, 96 h; HCC1599, breast cancer, four days; read-out: EC50
MCF7 = test: CellTiter-Glo Viability Assay, breast cancer; format: cell-based; conditions: Homo sapiens, 96 h; MCF7, breast cancer, four days; read-out: EC50
MDA-MB-231-Luc = test: CellTiter-Glo Viability Assay, breast cancer; format: cell-based; conditions: Homo sapiens, 96 h; MDA-MB-231-Luc, breast cancer, four days; read-out: EC50
T47D = test: CellTiter-Glo Viability Assay, breast cancer; format: cell-based; conditions: Homo sapiens, 96 h, breast cancer, four days, read-out: EC50
ZR-75-1 = test: CellTiter-Glo Viability Assay, breast cancer; format: cell-based; conditions: Homo sapiens, 96 h; ZR-75-1, breast cancer, four days; read-out: EC50
all 50 cell lines = test: CellTiter-Glo Viability Assay, average across all cell lines; format: cell-based; conditions: Homo sapiens; across all 50 cell lines; read-out: average EC50 for inhibition of cancer cell proliferation
In short: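 Cells were plated at 300-3,000 per well in their own media, then treated with compound in duplicate, with DMSO wells as controls. After four days at 37° C and 5% CO2, CellTiter-Glo was added, and luminescence was read. EC50s were fitted.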

[1] = tested on: colorectal cancer (6 cell lines); test: CellTiter-Glo Viability Assay, colorectal cancer; format: cell-based; conditions: Homo sapiens, inhibition of cancer cell proliferation
[2] = tested on: haematopoietic & lymphoid tumors (13 cell lines); test: CellTiter-Glo Viability Assay, haematopoietic & lymphoid tumors; format: cell-based; conditions: Homo sapiens, inhibition of cancer cell proliferation
[3] = tested on: liver cancer (3 cell lines); test: CellTiter-Glo Viability Assay, liver cancer; format: cell-based; conditions: Homo sapiens, inhibition of cancer cell proliferation
[4] = tested on: lung cancer (4 cell lines); test: CellTiter-Glo Viability Assay, lung cancer; format: cell-based; conditions: Homo sapiens, inhibition of cancer cell proliferation
[5] = tested on: ovarian cancer (4 cell lines); test: CellTiter-Glo Viability Assay, ovarian cancer; format: cell-based; conditions: Homo sapiens, inhibition of cancer cell proliferation
[6] = tested on: pancreatic cancer (8 cell lines); test: CellTiter-Glo Viability Assay, pancreatic cancer; format: cell-based; conditions: Homo sapiens, inhibition of cancer cell proliferation
[7] = tested on: prostate cancer (5 cell lines); test: CellTiter-Glo Viability Assay, prostate cancer; format: cell-based; conditions: Homo sapiens
[8] = HCT-116, HCT116 cell line, read-out: Colorectal cancer, EC50 (μM) HCT116
[9] = HT-29, HT29 cell line, read-out: Colorectal cancer, EC50 (μM) HT29
[10] = SW-620, SW620 cell line, read-out: Colorectal cancer, EC50 (μM) SW620
[11] = DLD-1 cell line, read-out: Colorectal cancer, EC50 (μM) DLD-1
[12] = SW48 cell line, read-out: Colorectal cancer, EC50 (μM) SW48
[13] = SW480 cell line, read-out: Colorectal cancer, EC50 (μM) SW480
[14] = DND41, DND-41 cell line, read-out: Haematopoietic & Lymphoid tumors, EC50 (μM) DND-41
[15] = MV4-11, MV-4-11 cell line, read-out: Haematopoietic & Lymphoid tumors, EC50 (μM) MV-4-11
[16] = Rec1, REC-1 cell line, read-out: Haematopoietic & Lymphoid tumors, EC50 (μM) REC-1
[17] = SU-DHL-4, SUDHL4 cell line, read-out: Haematopoietic & Lymphoid tumors, EC50 (μM) SUDHL4
[18] = HL-60 cell line, read-out: Haematopoietic & Lymphoid tumors, EC50 (μM) HL-60
[19] = JM1 cell line, read-out: Haematopoietic & Lymphoid tumors, EC50 (μM) JM1
[20] = JURKAT, Clone E6-1 cell line, read-out: Haematopoietic & Lymphoid tumors, EC50 (μM) JURKAT, Clone E6-1
[21] = JeKo-1 cell line, read-out: Haematopoietic & Lymphoid tumors, EC50 (μM) JeKo-1
[22] = KASUMI-1 cell line, read-out: Haematopoietic & Lymphoid tumors, EC50 (μM) KASUMI-1
[23] = Loucy cell line, read-out: Haematopoietic & Lymphoid tumors, EC50 (μM) Loucy
[24] = MOLT-4 cell line, read-out: Haematopoietic & Lymphoid tumors, EC50 (μM) MOLT-4
[25] = TF-1 cell line, read-out: Haematopoietic & Lymphoid tumors, EC50 (μM) TF-1
[26] = TOLEDO cell line, read-out: Haematopoietic & Lymphoid tumors, EC50 (μM) TOLEDO
[27] = SNU-398, SNU398 cell line, read-out: Liver cancer, EC50 SNU398
[28] = HEPG2 cell line, read-out: Liver cancer, EC50 HEPG2
[29] = PLC/PRF/5 cell line, read-out: Liver cancer, EC50 PLC/PRF/5
[30] = A-427, A427 cell line, read-out: Lung cancer, EC50 (μM) A427
[31] = HCC78, HCC-78 cell line, read-out: Lung cancer, EC50 (μM) HCC-78
[32] = NCI-H460 cell line, read-out: Lung cancer, EC50 (μM) NCI-H460
[33] = NCI-H522 cell line, read-out: Lung cancer, EC50 (μM) NCI-H522
[34] = PA-1, PA1 cell line, read-out: Ovarian cancer, EC50 (μM) PA1
[35] = TOV112D, TOV-112D cell line, read-out: Ovarian cancer, EC50 (μM) TOV-112D
[36] = OV-90 cell line, read-out: Ovarian cancer, EC50 (μM) OV-90
[37] = OVCAR-3 cell line, read-out: Ovarian cancer, EC50 (μM) OVCAR-3
[38] = BXPC-3, BxPC3 cell line, read-out: Pancreatic cancer, EC50 BxPC3
[39] = CAPAN-1, Capan1 cell line, read-out: Pancreatic cancer, EC50 Capan1
[40] = Capan-2, Capan2 cell line, read-out: Pancreatic cancer, EC50 Capan2
[41] = MIA PaCa-2 cell line, read-out: Pancreatic cancer, EC50 MIA PaCa-2
[42] = PANC 05.04 cell line, read-out: Pancreatic cancer, EC50 PANC 05.04
[43] = PANC-1 cell line, read-out: Pancreatic cancer, EC50 PANC-1
[44] = UPAFII cell line, read-out: Pancreatic cancer, EC50 UPAFII
[45] = DU-145, read-out: Prostate cancer EC50 Du-145
[46] = PC-3, PC3 cell line, inhibition of cancer cell proliferation, read-out: Prostate cancer EC50 PC3
[47] = 22Rv1 cell line, inhibition of cancer cell proliferation, read-out: Prostate cancer EC50 22Rv1
[48] = LNCap clone FGC cell line, inhibition of cancer cell proliferation, read-out: Prostate cancer EC50 LNCap clone FGC
[49] = VCaP (Sigma) cell line, inhibition of cancer cell proliferation, read-out: Prostate cancer EC50 VCaP (Sigma)

T1 sequence (P49760 whole entry): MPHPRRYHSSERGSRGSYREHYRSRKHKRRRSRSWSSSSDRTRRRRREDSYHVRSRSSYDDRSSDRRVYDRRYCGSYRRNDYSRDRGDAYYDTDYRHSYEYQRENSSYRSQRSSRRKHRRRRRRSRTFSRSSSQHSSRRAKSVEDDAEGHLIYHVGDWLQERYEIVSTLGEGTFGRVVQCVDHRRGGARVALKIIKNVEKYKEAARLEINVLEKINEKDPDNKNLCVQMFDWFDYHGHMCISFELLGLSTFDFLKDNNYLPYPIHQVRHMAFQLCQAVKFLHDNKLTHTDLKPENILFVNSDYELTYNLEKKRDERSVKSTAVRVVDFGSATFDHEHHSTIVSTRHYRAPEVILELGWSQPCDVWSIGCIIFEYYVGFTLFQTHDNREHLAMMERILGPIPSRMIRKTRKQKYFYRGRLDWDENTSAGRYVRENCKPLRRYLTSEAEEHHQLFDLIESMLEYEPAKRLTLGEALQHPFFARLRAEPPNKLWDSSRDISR

CN1CCCn2cc(nn2)-c2nccc3[nH]c(nc23)-c2n[nH]c3ccc(cc23)-c2cncc(c2)C1 [Compound 57]
EC50 (CLK2): 2.8 nM
EC50 (BT-549): 5810 nM
EC50 (CAMA1): > 10000 nM
EC50 (DU4475): 1660 nM
EC50 (HCC1599): 2200 nM
EC50 (MCF7): > 10000 nM
EC50 (MDA-MB-231-Luc): > 10000 nM
EC50 (T47D): > 10000 nM
EC50 (ZR-75-1): > 10000 nM
EC50 (all 50 cell lines): 7300 nM
EC50 [1, 8]: > 10 µM
EC50 [1, 9]: > 10 µM
EC50 [1, 10]: 7.7 µM
EC50 [1, 11]: > 10 µM
EC50 [1, 12]: 2.03 µM
EC50 [1, 13]: > 10 µM
EC50 [2, 14]: 2.38 µM
EC50 [2, 15]: 0.188 µM
EC50 [2, 16]: 6.85 µM
EC50 [2, 17]: 0.953 µM
EC50 [2, 18]: 3.13 µM
EC50 [2, 19]: 1.68 µM
EC50 [2, 20]: > 10 µM
EC50 [2, 21]: 0.917 µM
EC50 [2, 22]: 9.46 µM
EC50 [2, 23]: 1.71 µM
EC50 [2, 24]: > 10 µM
EC50 [2, 25]: 4.32 µM
EC50 [2, 26]: 1.85 µM
EC50 [3, 27]: 3380 nM
EC50 [3, 28]: > 10000 nM
EC50 [3, 29]: > 10000 nM
EC50 [4, 30]: 7.79 µM
EC50 [4, 31]: > 10 µM
EC50 [4, 32]: > 10 µM
EC50 [4, 33]: 7.58 µM
EC50 [5, 34]: > 10 µM
EC50 [5, 35]: > 10 µM
EC50 [5, 36]: > 10 µM
EC50 [5, 37]: 3.89 µM
EC50 [6, 38]: 7240 nM
EC50 [6, 39]: > 10000 nM
EC50 [6, 40]: > 10000 nM
EC50 [6, 41]: 6720 nM
EC50 [6, 42]: > 10000 nM
EC50 [6, 43]: > 10000 nM
EC50 [6, 44]: > 10000 nM
EC50 [7, 45]: > 10000 nM
EC50 [7, 46]: 8340 nM
EC50 [7, 47]: 6980 nM
EC50 [7, 48]: > 10000 nM
EC50 [7, 49]: > 10000 nM

O=C1CCc2cccc(c2)-c2cncc(c2)NC(=O)c2n[nH]c3ccc(cc23)-c2cncc(c2)CN1 [Compound 62]
EC50 (CLK2): 5.3 nM
EC50 (BT-549): > 10000 nM
EC50 (CAMA1): > 10000 nM
EC50 (DU4475): 387 nM
EC50 (HCC1599): 26 nM
EC50 (MCF7): > 10000 nM
EC50 (MDA-MB-231-Luc): > 10000 nM
EC50 (T47D): > 10000 nM
EC50 (ZR-75-1): > 10000 nM
EC50 (all 50 cell lines): 8550 nM
EC50 [1, 8]: > 10 µM
EC50 [1, 9]: > 10 µM
EC50 [1, 10]: > 10 µM
EC50 [1, 11]: > 10 µM
EC50 [1, 12]: 0.393 µM
EC50 [2, 14]: 7.8 µM
EC50 [2, 15]: 0.19 µM
EC50 [2, 16]: > 10 µM
EC50 [2, 17]: > 10 µM
EC50 [2, 18]: > 10 µM
EC50 [2, 19]: > 10 µM
EC50 [2, 20]: > 10 µM
EC50 [2, 21]: 0.452 µM
EC50 [2, 22]: > 10 µM
EC50 [2, 23]: > 10 µM
EC50 [2, 24]: > 10 µM
EC50 [2, 25]: > 10 µM
EC50 [2, 26]: > 10 µM
EC50 [3, 27]: 473 nM
EC50 [3, 28]: > 10000 nM
EC50 [3, 29]: > 10000 nM
EC50 [4, 30]: > 10 µM
EC50 [4, 31]: > 10 µM
EC50 [4, 32]: > 10 µM
EC50 [4, 33]: > 10 µM
EC50 [5, 34]: > 10 µM
EC50 [5, 35]: > 10 µM
EC50 [5, 36]: > 10 µM
EC50 [5, 37]: 0.554 µM
EC50 [6, 38]: > 10000 nM
EC50 [6, 39]: > 10000 nM
EC50 [6, 40]: > 10000 nM
EC50 [6, 41]: > 10000 nM
EC50 [6, 42]: > 10000 nM
EC50 [6, 43]: > 10000 nM
EC50 [6, 44]: > 10000 nM
EC50 [7, 45]: > 10000 nM
EC50 [7, 46]: > 10000 nM
EC50 [7, 47]: 7430 nM
EC50 [7, 48]: > 10000 nM
EC50 [7, 49]: > 10000 nM

Cn1cc(-c2ccc3cnc(NC(=O)c4ccc5c(c4)CNCC5)cc3c2)cn1 [Compound 74]
EC50 (CLK2): 1.9 nM
EC50 (BT-549): 346 nM
EC50 (CAMA1): 694 nM
EC50 (DU4475): 302 nM
EC50 (HCC1599): 168 nM
EC50 (MCF7): 1900 nM
EC50 (MDA-MB-231-Luc): 750 nM
EC50 (T47D): 997 nM
EC50 (ZR-75-1): 971 nM
EC50 (all 50 cell lines): 504 nM
EC50 [1, 8]: 0.239 µM
EC50 [1, 9]: 0.52 µM
EC50 [1, 10]: 0.163 µM
EC50 [1, 11]: 0.215 µM
EC50 [1, 12]: 0.151 µM
EC50 [1, 13]: 0.313 µM
EC50 [2, 14]: 0.491 µM
EC50 [2, 15]: 0.076 µM
EC50 [2, 16]: 0.134 µM
EC50 [2, 17]: 0.376 µM
EC50 [2, 18]: 0.76 µM
EC50 [2, 19]: 0.135 µM
EC50 [2, 20]: 0.464 µM
EC50 [2, 21]: 0.157 µM
EC50 [2, 22]: 0.203 µM
EC50 [2, 23]: 0.241 µM
EC50 [2, 24]: 0.465 µM
EC50 [2, 25]: 0.673 µM
EC50 [2, 26]: 0.134 µM
EC50 [3, 27]: 121 nM
EC50 [3, 28]: 716 nM
EC50 [3, 29]: 1100 nM
EC50 [4, 30]: 0.355 µM
EC50 [4, 31]: 0.835 µM
EC50 [4, 32]: 0.574 µM
EC50 [4, 33]: 0.188 µM
EC50 [5, 34]: 0.495 µM
EC50 [5, 35]: 0.229 µM
EC50 [5, 36]: 1.49 µM
EC50 [5, 37]: 0.195 µM
EC50 [7, 45]: 549 nM
EC50 [7, 46]: 438 nM
EC50 [7, 47]: 347 nM
EC50 [7, 48]: 587 nM
EC50 [7, 49]: 823 nM
